Earlier results, collected in patent US11858967B2, “Compositions and methods for enhanced production of enduracidin in a genetically engineered strain of streptomyces fungicidicus” (Oregon State University, priority 2016, dated 2024).
Where two headings read alike, the source gives them in different places.

Columns and labels:
[1] = test system: Gram-positive organisms, including methicillin-resistant Staphylococcus aureus (MRSA) and vancomycin-resistant Enterococcus (VRE)
[2] = test system: S. aureus (100 strains, including 40% MRSA); details: 100 strains of S. aureus
[3] = mice, rabbits, dogs and monkeys
[4] = test system: Clostridium spp.
[5] = monkey, in vivo
[6] = rat, in vivo
[7] = test system: MRSA; details: humans, i.m. 100 mg every 12 hours
[8] = in vivo

**Q.** For Enduracidin, which “type of antibacterial effect” value [1] is on record?
**A.** The value was “bactericidal”.

**Q.** And the “Minimum inhibitory concentrations (MICs)” value ([1]; as low as)?
**A.** The value was ≥ 0.05 mg/L.

**Q.** And the “concentration at which no strain was able to survive exposure” value [2]?
**A.** Its value is 1 µg/mL.

**Q.** And the “acute LD50” value ([3]; intraperitoneal)?
**A.** The value was 750 to 910 mg/kg.

**Q.** And the “acute LD50” value ([3]; intravenous)?
**A.** The value was 30 to 125 mg/kg.

**Q.** And the “acute LD50” value ([3]; subcutaneous, intramuscular (i.m.) or oral)?
**A.** The value was 5000 to 10000 mg/kg.

**Q.** What about the “activity towards Clostridium spp.” value [4] of the same substance?
**A.** The value was “excellent activity”.

**Q.** And the “findings after long-term dosing” value [5]?
**A.** Its value is “localized inflammation at the injection site”.

**Q.** And the “findings after long-term dosing” value [6]?
**A.** The value was “localized inflammation at the injection site”.

**Q.** What about the “efficacy in chronic bone infections” value [7] of the same substance?
**A.** Its value is “not chronic bone infections”.

**Q.** What about the “efficacy in urinary tract and skin infections caused by MRSA” value [7] of the same substance?
**A.** The value was “highly effective”.

**Q.** What about the oral bioavailability [8] of the same substance?
**A.** Its oral bioavailability is “lack of oral bioavailability”.
